In patent EP2810648A1, “Targeting domain-domain interaction for the identification of kinase modulators” (Rauh, Daniel, priority 2013, dated 2014):

Target: T1, Human Akt1 (UniProt entry P31749) (Homo sapiens, UniProt P31749, C296S/C310S/C344S/E49C)
T1 construct: made in house; host or cells: baculovirus, TriEx Sf9 cells
Assay: iFLiK assay (fluorophore-labeled Akt1 binding assay)
Conditions: for effect on PyMPO fluorescence (emission spectrum): PyMPO-labeled Akt1
Description: Measurements were carried out in black 384-well plates (Greiner Bio One). Labeled Akt1 was diluted to 200 nM in the measurement buffer consisting of 50 mM HEPES pH 7.4, 200 mM NaCl and 0.01% Triton-X 100. Dilution series of candidate compounds were prepared in DMSO at 21X the final desired concentration. Compounds (0.5 µL) were then mixed with labeled Akt1 (10 µL) in triplicates and with measurement buffer only in quadruplicates at 12 different concentrations to achieve final compound concentrations ranging from 0.8 nM to […]. Each well contained 5% v/v DMSO after mixing. Plates were then covered with an adhesive plastic foil and incubated for 2 h at RT prior to measurement of emission intensities at fluorophore-specific wavelengths (Table 1) using a Tecan Infinite M1000 plate reader. Compound auto-fluorescence was compensated by subtraction of the average background signals obtained in the absence of labeled kinase. The respective assay readout for the various Akt-fluorophore conjugates specified in Table 1 were fit to a Hill 4-parameter equation to determine Kd values for allosteric Akt ligands. Each reaction was performed in triplicate and at least three independent measurements of each Kd were determined for each ligand. Table 1: Overview of fluorophore probes.
Screening initiatives were carried out in black 384-well plates (Greiner Bio One). PyMPO-labeled Akt1 was diluted to 200 nM in the measurement buffer consisting of 50 mM HEPES pH 7.4, 200 mM Nacl and 0.01% Triton-X 100. Each candidate compound was prepared in DMSO at 210 µM. Compounds (0.5 µL) were then mixed each with labeled Akt1 (10 µL) and with measurement buffer only to achieve final compound concentrations of 10 µM. Each well contained 5% v/v DMSO after mixing. Plates were then covered with an adhesive plastic foil and incubated for 2 h at RT prior to measurement using a Tecan Infinite M1000 plate reader emission intensities at 508 nm and 638 nm, using both 419 nm and 440 nm for excitation. Compound auto-fluorescence was compensated by subtraction of the average background signals obtained in the absence of labeled kinase. Ratio of fluorescence intensities fl638/fl508 were calculated from the background-subtracted values. For hit picking criteria, see Table 2 below.

T1 sequence (P31749 whole entry E49C/C296S/C310S/C344S, one chain of several): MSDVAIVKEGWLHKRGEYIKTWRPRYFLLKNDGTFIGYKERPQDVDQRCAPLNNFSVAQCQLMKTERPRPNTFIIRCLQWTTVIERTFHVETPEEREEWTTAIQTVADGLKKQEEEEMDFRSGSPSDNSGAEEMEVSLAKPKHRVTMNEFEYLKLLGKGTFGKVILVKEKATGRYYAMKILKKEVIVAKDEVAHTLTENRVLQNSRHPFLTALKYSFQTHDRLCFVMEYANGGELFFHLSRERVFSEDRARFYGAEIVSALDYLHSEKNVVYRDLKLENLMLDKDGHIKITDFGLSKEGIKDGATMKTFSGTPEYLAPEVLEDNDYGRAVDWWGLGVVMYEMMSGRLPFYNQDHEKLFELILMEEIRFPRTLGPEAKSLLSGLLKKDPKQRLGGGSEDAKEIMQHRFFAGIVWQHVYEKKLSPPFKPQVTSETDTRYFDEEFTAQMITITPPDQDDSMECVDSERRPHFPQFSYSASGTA

SMILES | effect on PyMPO fluorescence (emission spectrum) | response of the labeled kinase (collection of fluorophore-labeled kinases, dilution series 0.8 nM to 50 µM)
NC1(Cc2ccc(Cl)cc2)CCN(c2ncnc3[nH]ccc23)CC1 [CCT128930] | no effect | –
O=C(O[C@@H]1Cc2c(O)cc(O)cc2O[C@@H]1c1cc(O)c(=O)c2c(O)c(O)cc([C@H]3Oc4cc(O)cc(O)c4C[C@H]3O)c2c1)c1cc(O)c(O)c(O)c1 [XX8] | reduction of the fluorescence intensity | –
CCn1c(-c2nonc2N)nc2c(C#CC(C)(C)O)ncc(OC[C@H]3CCCNC3)c21 [GSK690693] | no effect | unresponsive
NC1(c2ccc(-c3nc4ccn5c(=O)[nH]nc5c4cc3-c3ccccc3)cc2)CCC1 [MK-2206] | bathochromic shift | –
